This note sets out measurements from patent US5434182A (priority 1993, dated 1995).

Structures are written as SMILES. Values joined by “and” are separate entries in the source; they are usually repeats but may differ in a detail not shown here. Identical values can stand only once. “Also recorded” adds a separate entry of the source. Like-named read-outs stand apart in the source and are kept apart here.

In series [1] the test system is VSV. Kind of series: microbe, parasite or virus in culture. In kind it is cell-based, vesicular stomatitis virus strain Indiana. The note with it: for minimal effective concentration: read-out: Lowest concentration causing ≥3.0 log10 reduction in virus titer.
The test system of series [2] is HSV-1. As to the kind of experiment: microbe, parasite or virus in culture. The note with it: Human alphaherpesvirus 1, 0.5 h; 0.25 mg/ml, 37° C., 30 min; read-out: Reduction of virus titer, HSV-1. In kind it is cell-based, herpes simplex virus type 1 strain MacIntyre.
Series [3] deals with HSV-1. In kind it is cell-based, herpes simplex virus type 1 strain MacIntyre.
In the next series the test system is Group B streptococcus. Kind of series: Inactivation of bacteria by monoglycerides, Group B streptococcus. The note with it: 2 mg/ml, read-out: Reduction of bacterial concentration, Group B streptococcus. In kind it is cell-based.
In series [4] the test system is VSV. Kind of series: microbe, parasite or virus in culture. Format: cell-based, vesicular stomatitis virus.
Series [5] relates to VSV. As to the kind of experiment: microbe, parasite or virus in culture. Format: cell-based, vesicular stomatitis virus. The note with it: for log reduction at 15000 µM: Vesicular stomatitis virus.
Another series concerns sperm. Kind of series: Spermicidal test: motility and viability of sperm in semen. The note with it: for viability at 100000 µM / viability at 150000 µM: Homo sapiens, Sperm. In kind it is cell-based. The protocol:
The fatty acids and derivatives thereof disclosed here are useful as spermicides and in the treatment of sexually transmitted diseases. […] Four samples tested were comprised as follows:
Five test tubes were prepared, one for each of Samples A to D and a Control. An amount of 0.5 ml of active semen was added to each test tube. Each of Samples A and B and the Control was at 37° C., and Samples C and D were at room temperature. The percentages of motility and viability were measured from 15 seconds to 5 minutes in the case of each of Samples A to D and from 15 seconds to 2 hours for the Control.

For a further series, the system named is Total White Blood Cells. Kind of series: Stability of white blood cells in whole human blood to added lipid. Format: cell-based. The arrangement: unit not given here. The note with it: 15 mM, control 6.4. An excerpt:
Further testing has shown the effect of monoglyceride esters and ether on the total white blood cell concentration in whole human blood.

For series [6], the system named is VSV. Kind of series: microbe, parasite or virus in culture. In kind it is cell-based, vesicular stomatitis virus strain Indiana. The note with it: Vesicular stomatitis virus, 0.5 h; for minimal effective concentration: read-out: lowest concentration which reduced the VSV titer by ≥4.0 log10 units.
The test system of series [7] is HSV-1. Kind of series: microbe, parasite or virus in culture. In kind it is cell-based, herpes simplex virus type 1 strain MacIntyre. The note with it: Human alphaherpesvirus 1, 0.5 h, 37° C., 30 min, read-out: Reduction of virus titer, HSV-1.
For a further series, the system named is Visna virus. As to the kind of experiment: microbe, parasite or virus in culture. In kind it is cell-based, Visna virus strain K796. The note with it: Visna-maedi virus, 0.5 h, 37° C., 30 min, read-out: Reduction of virus titer, VV (visna virus).
The subject of another series is poliovirus. In kind it is cell-based, Poliovirus type 1 strain Chat. The note with it: 8 mg/ml, 37° C., 30 min; control 10^4.7 TCID50.
Another series concerns enveloped viruses. In kind it is cell-based.
The subject of series [8] is VSV. Kind of series: microbe, parasite or virus in culture. In kind it is cell-based, vesicular stomatitis virus strain Indiana. The note with it: for effect on viral particles (electron micrographs): 37° C., 30 min.
In the next series the test system is Vero cells. As to the kind of experiment: Disintegration of cell membranes, Vero cells (scanning electron microscopy). The note with it: 1 mg/ml, 37° C., 30 min.
The next series has as its system sheep fibroblasts. Kind of series: Disintegration of cell membranes, sheep fibroblasts (scanning electron microscopy). The note with it: 1 mg/ml, 37° C., 30 min.
[9] abbreviates: Vesicular stomatitis virus, 0.5 h.
Where [10] appears, read: Vesicular stomatitis virus, 0.5 h, read-out: Reduction of virus titer, VSV.
The mark [11] stands for this setting: read-out: Reduction of virus titer, VSV.

As for `CCCCCCCCCCCC(=O)OCC(O)CO` (racemic) [Monolaurin (12:0), 1-Monolauroyl-rac-glycerol], the minimal effective concentration with VSV [1] (setting [9]) is 250 µg/mL and 900 µM. The log reduction at 250 µg/mL is not below 4 in the series on VSV [1] (setting [10]) and not below 3.7 in the series on HSV-1 [2]. The “active concentration relative to corresponding free acids” value with VSV [1] (monoglyceride vs free acid) is “ten times lower”. The “Reduction of HSV-L titer” value with HSV-1 [3] (incubation 0.5 min), with HSV-1 [3] (incubation 1 min), in the series on HSV-1 [3] (incubation 5 min), in the series on HSV-1 [3] (incubation 10 min) and with HSV-1 [3] (incubation 30 min) was not below 4.0 each time. The log reduction at 2000 µg/mL with Group B streptococcus was found to be 4.5. In addition, the “dependence of viral killing on sodium taurocholate” value in the series with VSV [4] (VSV, human serum) is “only takes place when sodium taurocholate is present”. Also, the log reduction at 3000 µM in the series on VSV [4] (Vesicular stomatitis virus, read-out: Reduction in VSV Titer, 3 mM, 10 mM sodium taurocholate, human serum) is not below 5; with VSV [4] (Vesicular stomatitis virus, read-out: Reduction in VSV Titer, 3 mM, no sodium taurocholate, human serum) it was 0. The log reduction at 4000 µM with VSV [4] (Vesicular stomatitis virus, read-out: Reduction in VSV Titer, 4 mM, 10 mM sodium taurocholate, human serum) was not below 5; with VSV [4] (Vesicular stomatitis virus, read-out: Reduction in VSV Titer, 4 mM, no sodium taurocholate, human serum), 0. For the same compound, the log reduction at 5000 µM in the series on VSV [4] (Vesicular stomatitis virus, read-out: Reduction in VSV Titer, 5 mM, 10 mM sodium taurocholate, human serum) was not below 5; in the series on VSV [4] (Vesicular stomatitis virus, read-out: Reduction in VSV Titer, 5 mM, no sodium taurocholate, human serum), 0. Besides, the log reduction at 7500 µM in the series with VSV [4] (Vesicular stomatitis virus, read-out: Reduction in VSV Titer, 7.5 mM, 10 mM sodium taurocholate, human serum (Table 18)) was not below 5. Also, the log reduction at 15000 µM in the series on VSV [4] (Vesicular stomatitis virus, read-out: Reduction in VSV Titer, 15 mM, 10 mM sodium taurocholate, human serum) was not below 5. The “concentration as low as which kills VSV” value in the series on VSV [4] (in the presence of 10 mM sodium taurocholate) turned out to be 3 mM.
Consider `CCCCCCCCOC[C@@H](O)CO` [1-O-Octyl-sn-glycerol, 1-O-octyl-sn-glycerol], for which, in the series on VSV [5] (5 mM, with 10 mM sodium taurocholate, human plasma, 37° 30 min), the “Reduction in VSV titer” value is not below 4.0 Log10. The log reduction at 15000 µM in the series with VSV [5] (2.5 min, read-out: Reduction in VSV Titer, 15 mM, 2.5 min, 37°, human plasma) was 0; with VSV [5] (5 min, read-out: Reduction in VSV Titer, 15 mM, 5 min, 37°, human plasma) it was not below 4; in the series with VSV [5] (10 min, read-out: Reduction in VSV Titer, 15 mM, 10 min, 37°, human plasma) it was not below 4; in the series with VSV [5] (0.25 h, read-out: Reduction in VSV Titer, 15 mM, 15 min, 37°, human plasma), not below 4; with VSV [5] (0.5 h, read-out: Reduction in VSV Titer, 15 mM, 30 min, 37°, human plasma), not below 4; in the series on VSV [5] (0.5 h, read-out: Reduction in VSV Titer, 15 mM, no sodium taurocholate, human plasma, 37° 30 min), not below 4. The “antiviral activity of MG ethers relative to esters, in words” value with VSV [5] (human plasma, listed as 8 carbon MG ether) was “just as effective as the naturally occurring esters; also recorded: somewhat more antiviral than the 8 carbon ester”. In addition, the “% mot.” value was found to be 0% with sperm (100 mM in semen, 15 sec., Sample B 37° C., Sample D room temperature); 0% with sperm (100 mM in semen, 30 sec., Sample B 37° C., Sample D room temperature); 0% in the series with sperm (100 mM in semen, 1 min., Sample B 37° C., Sample D room temperature); 0% in the series with sperm (100 mM in semen, 2 min., Sample B 37° C., Sample D room temperature); 0% in the series on sperm (100 mM in semen, 3 min., Sample B 37° C., Sample D room temperature); 0% with sperm (100 mM in semen, 5 min., Sample B 37° C., Sample D room temperature). For the same compound, the “% mot.” value with sperm (150 mM in semen, 15 sec., Sample A 37° C., Sample C room temperature) worked out at 0%; in the series on sperm (150 mM in semen, 30 sec., Sample A 37° C., Sample C room temperature), 0%; with sperm (150 mM in semen, 1 min., Sample A 37° C., Sample C room temperature), 0%; in the series with sperm (150 mM in semen, 2 min., Sample A 37° C., Sample C room temperature), 0%; in the series on sperm (150 mM in semen, 3 min., Sample A 37° C., Sample C room temperature), 0%; in the series with sperm (150 mM in semen, 5 min., Sample A 37° C., Sample C room temperature), 0%. Also, in the series with sperm (A, C 150 mM, B 100 mM in semen), the “time within which 0% viability was effected” value is not above 3 min. For the same compound, the “time within which sperm cells were rendered immobile” value with sperm (A, C 150 mM, B 100 mM in semen) is not above 15 s. Moreover, in the series with sperm (A, C 150 mM, B, D 100 mM in semen, 30 minutes), the coating of sperm entry is “coated the sperm effectively”. The viability (usually a per cent measure of how many cells are alive, often set against a control) at 100000 µM with sperm (0.05 h, 100 mM in semen, 3 min., Sample B 37° C.) was determined as 0%; in the series with sperm (5 min, 100 mM in semen, Sample B 37° C., Sample D room temperature), 0%. Moreover, the viability at 150000 µM worked out at 0% in the series with sperm (0.05 h, 150 mM in semen, 3 min., Sample A 37° C., Sample C room temperature) and 0% in the series with sperm (5 min, 150 mM in semen, Sample A 37° C., Sample C room temperature). Besides, the “Total White Blood Cells” value in the series on Total White Blood Cells is on record as 0.6.
For `CCCCCCCCCCCC(=O)O` [Lauric (12:0), Lauric], the log reduction at 2000 µg/mL with VSV [6] (setting [11]) is not below 4; in the series with HSV-1 [7] (2 mg/ml) it was not below 4; in the series on Visna virus (2 mg/ml), not below 3.2. In addition, the minimal effective concentration with VSV [6] was 2000 µg/mL and 10000 µM. The “reduction of poliovirus titer” value with poliovirus is “did not cause a significant reduction of virus titer”. For the same compound, in the series with enveloped viruses, the “antiviral activity in words” value is “showed activity”.
In the case of `CCCCC/C=C\C/C=C\CCCCCCCC(=O)O` [Linoleic (18:2), linoleic acid], the log reduction at 1000 µg/mL in the series with VSV [6] (setting [11]) is not below 4; in the series with HSV-1 [7] (1 mg/ml) it was not below 4; in the series on Visna virus (1 mg/ml) it was not below 3.2; with VSV [8] (Vesicular stomatitis virus, 0.5 h, read-out: reduction in virus titer, 1 mg/ml, samples used for electron microscopy), not below 3. The minimal effective concentration in the series on VSV [6] is 1000 µg/mL and 3500 µM. Further, in the series on poliovirus, the “reduction of poliovirus titer” value was “did not cause a significant reduction of virus titer”. The entries for the “effect on viral particles (electron micrographs)” value in the series with VSV [8] (0.5 mg/ml) and in the series on VSV [8] (1 mg/ml) were “leakage of viral envelopes was produced” and “particle disintegration”, respectively. Also, in the series with VSV [8] (Vesicular stomatitis virus, 0.5 h, read-out: reduction in virus titer, 0.5 mg/ml, samples used for electron microscopy), the log reduction at 500 µg/mL is 1. In addition, the “effect on cell membranes” value with Vero cells and in the series on sheep fibroblasts was “the cell membranes were partly or completely disintegrated” throughout.
With `CCCCC/C=C\C/C=C\CCCCCCCC(=O)OC[C@@H](O)CO` [Monolinolein (18:2), Monolinolein], the minimal effective concentration in the series with VSV [1] (setting [9]) was 250 µg/mL and 700 µM. The log reduction at 250 µg/mL in the series on VSV [1] (setting [10]) is not below 4. Also, in the series with VSV [1] (maintenance medium, millimolar), the “concentration relative to monocaprin for same reduction in viral titer” value is on record as “one-third the concentration”. Also, the log reduction at 2000 µg/mL in the series with Group B streptococcus was determined as 4.5.
Turning to `CCCCCCCCCCCCCC(=O)OCC(O)CO` (stereo not drawn) [Monomyristin (14:0), Monomyristin], the minimal effective concentration with VSV [1] (setting [9]) is 2000 µg/mL and 13000 µM. The log reduction at 2000 µg/mL in the series with VSV [1] (setting [10]) was found to be 3. Also, the “antiviral activity in words” value with enveloped viruses is given as “consistently less active”.
In the case of `CCCCCCCCCCCCCC(=O)O` [Myristic (14:0), Myristic], the log reduction at 4000 µg/mL is not below 4 in the series with VSV [6] (setting [11]), not below 4 in the series on HSV-1 [7] (4 mg/ml) and 1.7 with Visna virus (4 mg/ml). Also, in the series with VSV [6], the minimal effective concentration is 4000 µg/mL and 16000 µM. For the same compound, the “reduction of poliovirus titer” value in the series with poliovirus is reported as “did not cause a significant reduction of virus titer”. In the series on enveloped viruses, the “antiviral activity in words” value is listed as “showed activity”.
